Experimental data as given in ChEMBL document CHEMBL1136082, “Muscarinic M(3) receptor antagonists with (2R)-2-[(1R)-3,3-difluorocyclopentyl]-2-hydroxyphenylacetamide Structures. Part 2” (Bioorg Med Chem Lett, 2003).

Legend:
[1] = biological target: T1, Muscarinic acetylcholine receptor M2 (Homo sapiens, UniProt P08172); experiment: Binding affinity against human muscarinic acetylcholine receptor M2 in transfected CHO cells; format: cell-based
T1 sequence (P08172 whole entry): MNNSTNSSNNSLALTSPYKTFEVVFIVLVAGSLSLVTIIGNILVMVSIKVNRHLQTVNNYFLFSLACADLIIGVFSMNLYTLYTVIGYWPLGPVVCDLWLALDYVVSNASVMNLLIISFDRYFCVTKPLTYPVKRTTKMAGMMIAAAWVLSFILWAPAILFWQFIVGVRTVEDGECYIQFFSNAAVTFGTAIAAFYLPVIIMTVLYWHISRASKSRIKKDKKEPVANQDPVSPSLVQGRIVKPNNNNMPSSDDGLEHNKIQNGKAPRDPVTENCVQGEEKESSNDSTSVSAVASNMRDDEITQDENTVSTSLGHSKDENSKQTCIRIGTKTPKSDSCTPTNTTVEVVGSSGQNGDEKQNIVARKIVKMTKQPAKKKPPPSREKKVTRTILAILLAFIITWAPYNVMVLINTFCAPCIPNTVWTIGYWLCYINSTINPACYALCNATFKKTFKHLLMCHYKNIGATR

[2] = biological target: T2, Muscarinic acetylcholine receptor M1 (Homo sapiens, UniProt P11229); experiment: Binding affinity against human Muscarinic acetylcholine receptor M1 in transfected CHO cells; format: cell-based
T2 sequence (P11229 whole entry): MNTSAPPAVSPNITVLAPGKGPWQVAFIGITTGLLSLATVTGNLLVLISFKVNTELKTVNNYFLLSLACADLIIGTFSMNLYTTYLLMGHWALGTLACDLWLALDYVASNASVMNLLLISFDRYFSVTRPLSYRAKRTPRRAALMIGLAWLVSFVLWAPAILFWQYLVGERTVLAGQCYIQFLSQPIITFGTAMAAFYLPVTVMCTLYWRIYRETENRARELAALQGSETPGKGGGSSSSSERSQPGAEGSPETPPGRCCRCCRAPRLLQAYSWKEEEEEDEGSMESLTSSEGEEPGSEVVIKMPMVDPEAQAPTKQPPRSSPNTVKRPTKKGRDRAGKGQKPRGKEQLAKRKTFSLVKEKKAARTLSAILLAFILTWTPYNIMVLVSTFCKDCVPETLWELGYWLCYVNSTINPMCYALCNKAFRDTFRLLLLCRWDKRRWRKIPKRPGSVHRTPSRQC

[3] = biological target: Muscarinic acetylcholine receptor M3 (Homo sapiens, UniProt P20309); experiment: Binding affinity against human muscarinic acetylcholine receptor M3 in transfected CHO cells; format: cell-based
[4] = Half-life of the compound after 0.3 mg/kg po administration in dog; format: ADME, organism-based, Canis lupus familiaris; parameters: dose 0.3 mg/kg, route oral; conditions: in vivo
[5] = Oral bioavailability after 0.3 mg/kg po administration in dog; format: ADME, organism-based, Canis lupus familiaris; conditions: in vivo
[6] = Total clearance was determined after 0.1 mg/kg iv administration in dog; format: ADME, organism-based, Canis lupus familiaris; parameters: dose 0.1 mg/kg, route intravenous; conditions: in vivo, read-out: CLtotal
[7] = Area under curve was determined after 0.3 mg/kg po administration in dog; format: ADME, organism-based, Canis lupus familiaris; parameters: dose 0.3 mg/kg, route oral; conditions: in vivo
[8] = In vitro metabolic stability determined after 30 min of incubation in dog hepatic microsomes; format: ADME, Canis lupus familiaris; conditions: liver microsomes, read-out: Metabolic stability
[9] = Area under curve was determined after 0.1 mg/kg iv administration in dog; format: ADME, organism-based, Canis lupus familiaris; parameters: dose 0.1 mg/kg, route intravenous; conditions: in vivo
[10] = Cmax after 0.3 mg/kg po administration in dog; format: ADME, organism-based, Canis lupus familiaris; parameters: dose 0.3 mg/kg, route oral; conditions: in vivo
[11] = In vitro metabolic stability determined after 30 min of incubation in rat hepatic microsomes; format: ADME; conditions: liver microsomes, read-out: Metabolic stability
[12] = In vitro metabolic stability determined after 30 min of incubation in human hepatic microsomes; format: ADME; conditions: liver microsomes, read-out: Metabolic stability
[13] = Vdss was determined after iv 0.1 mg/kg administration in dog; format: ADME, organism-based, Canis lupus familiaris; parameters: dose 0.1 mg/kg, route intravenous; conditions: in vivo, read-out: Vdss

Chain of Muscarinic acetylcholine receptor M3 (P20309 whole entry): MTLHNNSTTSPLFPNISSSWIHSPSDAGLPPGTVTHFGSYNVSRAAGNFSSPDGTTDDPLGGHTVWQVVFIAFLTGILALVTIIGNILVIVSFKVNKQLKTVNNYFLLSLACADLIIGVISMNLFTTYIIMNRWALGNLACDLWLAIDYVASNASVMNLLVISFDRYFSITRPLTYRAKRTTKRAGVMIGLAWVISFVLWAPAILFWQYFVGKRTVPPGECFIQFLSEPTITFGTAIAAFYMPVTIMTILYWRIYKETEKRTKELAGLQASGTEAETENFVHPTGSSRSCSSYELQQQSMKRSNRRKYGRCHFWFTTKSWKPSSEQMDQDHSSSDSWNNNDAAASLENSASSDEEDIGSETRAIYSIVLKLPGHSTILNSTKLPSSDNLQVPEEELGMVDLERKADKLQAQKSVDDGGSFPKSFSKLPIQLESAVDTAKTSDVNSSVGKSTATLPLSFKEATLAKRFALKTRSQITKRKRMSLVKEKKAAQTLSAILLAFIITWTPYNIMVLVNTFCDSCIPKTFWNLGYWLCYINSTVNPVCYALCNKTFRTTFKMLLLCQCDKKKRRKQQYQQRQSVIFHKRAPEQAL

Compound `NCCCCC1CCN(C(=O)[C@](O)(c2ccccc2)[C@@H]2CCC(F)(F)C2)CC1` has a Ki [1] of 4200 nM, a Ki [2] of 140 nM and a Ki [3] of 76 nM.
Compound `NCc1cccc(NC(=O)[C@](O)(c2ccccc2)[C@@H]2CCC(F)(F)C2)c1` has a Ki [1] of 2900 nM, a Ki [2] of 210 nM and a Ki [3] of 93 nM.
In the case of `NCc1ccc(NC(=O)[C@](O)(c2ccccc2)[C@@H]2CCC(F)(F)C2)cc1`, the Ki [1] is reported as 5300 nM, the Ki [2] is reported as 740 nM and the Ki [3] is reported as 650 nM.
Work on `CC1(CCN)CCN(C(=O)[C@](O)(c2ccccc2)[C@@H]2CCC(F)(F)C2)CC1` yielded a Ki [1] of 210 nM, a Ki [2] of 1.5 nM and a Ki [3] of 3.3 nM.
Work on `NCC1CCN(C(=O)[C@](O)(c2ccccc2)[C@@H]2CCC(F)(F)C2)C1` (stereo not given in full) yielded a Ki [1] of 130 nM, a Ki [2] of 2.1 nM and a Ki [3] of 2.9 nM.
`O=C(NCC1CCNCC1)[C@](O)(c1ccccc1)[C@@H]1CCC(F)(F)C1` showed a Ki [1] of 2200 nM, a Ki [2] of 23 nM and a Ki [3] of 17 nM.
For `O=C(Nc1ccc2c(c1)CNC2)[C@](O)(c1ccccc1)[C@@H]1CCC(F)(F)C1`, the Ki [1] was 15000 nM, the Ki [2] was 630 nM and the Ki [3] was 290 nM.
In the case of `NCCC1CCN(C(=O)[C@](O)(c2ccccc2)[C@@H]2CCC(F)(F)C2)CC1`, the half-life [4] is reported as 6.9 h, the bioavailability [5] is reported as 98% and the clearance [6] is reported as 13 mL/min/kg. The AUC [7] was 440 ng·h/mL, the Ki [2] was 6.6 nM and the remaining at 0.5 h [8] was 100%. For the same compound, the AUC [9] was 150 ng·h/mL, the Cmax [10] was 43 ng/mL and the remaining at 0.5 h [11] was 100%. For the same compound, the remaining at 0.5 h [12] was 82% and the Vd [13] was 9.4 L/kg.
`O=C(N1CCCNCC1)[C@](O)(c1ccccc1)[C@@H]1CCC(F)(F)C1` showed a Ki [1] of 1100 nM, a Ki [2] of 14 nM and a Ki [3] of 17 nM.
With `CCC1(CCN)CCN(C(=O)[C@](O)(c2ccccc2)[C@@H]2CCC(F)(F)C2)CC1` the Ki [1] was 300 nM, the Ki [2] was 1 nM and the Ki [3] was 7 nM.
For `NCC1CCN(C(=O)[C@](O)(c2ccccc2)[C@@H]2CCC(F)(F)C2)CC1`, the Ki [1] was 760 nM, the Ki [2] was 11 nM and the remaining at 0.5 h [8] was 100%. It also gave a remaining at 0.5 h [11] of 98%, a remaining at 0.5 h [12] of 100% and a Ki [3] of 11 nM.
Work on `NCC1CCN(C(=O)[C@](O)(c2ccccc2)C2CCCC2)CC1` yielded a Ki [1] of 28 nM, a Ki [2] of 1.8 nM and a remaining at 0.5 h [8] of 100%. It also gave a remaining at 0.5 h [11] of 72%, a remaining at 0.5 h [12] of 91% and a Ki [3] of 1.7 nM.
`NCCCC1CCN(C(=O)[C@](O)(c2ccccc2)[C@@H]2CCC(F)(F)C2)CC1` gave a Ki [1] of 2800 nM, a Ki [2] of 92 nM and a Ki [3] of 47 nM.
Work on `O=C(N1CCNCC1)[C@](O)(c1ccccc1)[C@@H]1CCC(F)(F)C1` yielded a Ki [1] of 1200 nM, a Ki [2] of 30 nM and a Ki [3] of 50 nM.
Work on `O=C(NCCC1CCNCC1)[C@](O)(c1ccccc1)[C@@H]1CCC(F)(F)C1` yielded a Ki [1] of 3900 nM, a Ki [2] of 140 nM and a Ki [3] of 89 nM.
For `NCC=C1CCN(C(=O)[C@](O)(c2ccccc2)[C@@H]2CCC(F)(F)C2)CC1`, the Ki [1] was 55 nM, the Ki [2] was 1.3 nM and the Ki [3] was 1.2 nM.
For `NC1CCN(C(=O)[C@](O)(c2ccccc2)[C@@H]2CCC(F)(F)C2)CC1`, the Ki [1] was 240 nM, the Ki [2] was 3 nM and the remaining at 0.5 h [8] was 88%. It also gave a remaining at 0.5 h [11] of 100%, a remaining at 0.5 h [12] of 86% and a Ki [3] of 5.1 nM.
`CC1(N)CCN(C(=O)[C@](O)(c2ccccc2)[C@@H]2CCC(F)(F)C2)CC1` showed a Ki [1] of 640 nM, a Ki [2] of 4.7 nM and a Ki [3] of 8.3 nM.
With `O=C(NC1CCNCC1)[C@](O)(c1ccccc1)[C@@H]1CCC(F)(F)C1` the Ki [1] was 15000 nM, the Ki [2] was 310 nM and the Ki [3] was 320 nM.
`NCC(=O)N1CCN(C(=O)[C@](O)(c2ccccc2)[C@@H]2CCC(F)(F)C2)CC1` showed a Ki [1] of 300 nM, a Ki [2] of 21 nM and a Ki [3] of 16 nM.
Work on `NCCN1CCN(C(=O)[C@](O)(c2ccccc2)[C@@H]2CCC(F)(F)C2)CC1` yielded a Ki [1] of 820 nM, a Ki [2] of 11 nM and a Ki [3] of 9.6 nM.
With `NCCC1CCN(C(=O)[C@](O)(c2ccccc2)C2CCCC2)CC1` the Ki [1] was 41 nM, the Ki [2] was 2.1 nM and the remaining at 0.5 h [8] was 84%. It also gave a remaining at 0.5 h [11] of 77%, a remaining at 0.5 h [12] of 86% and a Ki [3] of 1.1 nM.
`Nc1cccc(CN2CCC(NC(=O)[C@](O)(c3ccccc3)[C@@H]3CCC(F)(F)C3)CC2)n1` showed a remaining at 0.5 h [8] of 84%, a remaining at 0.5 h [11] of 46% and a remaining at 0.5 h [12] of 80%.
Work on `CN(C)CCC1CCN(C(=O)[C@](O)(c2ccccc2)[C@@H]2CCC(F)(F)C2)CC1` yielded a Ki [1] of 15000 nM, a Ki [2] of 760 nM and a Ki [3] of 930 nM.
`O=C(N1CCC(CCN2CCCCC2)CC1)[C@](O)(c1ccccc1)[C@@H]1CCC(F)(F)C1` gave a Ki [1] of 36000 nM, a Ki [2] of 1900 nM and a Ki [3] of 2400 nM.
Compound `NC1CCN(C(=O)[C@](O)(c2ccccc2)C2CCCC2)CC1` has a Ki [1] of 11 nM, a Ki [2] of 0.98 nM and a remaining at 0.5 h [8] of 89%. It also gave a remaining at 0.5 h [11] of 40%, a remaining at 0.5 h [12] of 92% and a Ki [3] of 1.4 nM.
In the case of `CC(C)(N)CC1CCN(C(=O)[C@](O)(c2ccccc2)[C@@H]2CCC(F)(F)C2)CC1`, the Ki [1] is reported as 1000 nM, the Ki [2] is reported as 37 nM and the Ki [3] is reported as 26 nM.
`NCC1CCC(NC(=O)[C@](O)(c2ccccc2)[C@@H]2CCC(F)(F)C2)CC1` (stereo not given in full) showed a Ki [1] of 6800 nM, a Ki [2] of 55 nM and a Ki [3] of 100 nM.
Compound `CNCCC1CCN(C(=O)[C@](O)(c2ccccc2)[C@@H]2CCC(F)(F)C2)CC1` has a Ki [1] of 5400 nM, a Ki [2] of 140 nM and a Ki [3] of 120 nM.
